Measured values reported in patent publication US7582610B2, “Melanocortin receptor templates, peptides and use thereof” (priority 2003, dated 2009).
Blank lines part the entries; values can stand above or below the compound they belong to. Where a SMILES comes first, the peptide text is derived from it. Bridges are numbered along the chain shown (N, C = ends). [ ]: non-standard residue; d: D form. Nle = CCCC[C@H](N)C(=O)O; Dap = NC[C@H](N)C(=O)O

How the values were obtained:
[1] = molecular target: mMC3R (Mus musculus, UniProt P33033); test: Functional bioassay, CRE/β-galactosidase reporter in HEK-293 cells stably expressing mMC3R; conditions: for pharmacology in words at mMC3R: slight agonist = some stimulatory response at 100 μM, not enough to determine an EC50
Description: (§1) 5,000 to 15,000 post transfection cells were plated into 96 well Primera plates (Falcon) and incubated overnight. […] The assay media was aspirated and 50 μL of lysis buffer (250 mM Tris-HCl pH=8.0 and 0.1% Triton X-100) was added. The plates were stored at −80° overnight.
(§2) The plates containing the cell lysates were thawed the following day. Aliquots of 10 μL were taken from each well and transferred to another 96-well plate for relative protein determination. To the cell lysate plates, 40 μL phosphate-buffered saline with 0.5% BSA was added to each well. Subsequently, 150 μL substrate buffer (60 mM sodium phosphate, 1 mM MgCl2, 10 mM KCl, 5 mM β-mercaptoethanol, 200 mg/100 mL ONPG) was added to each well and the plates were incubated at 37°.
(§3) The sample absorbance, OD405, was measured using a 96 well plate reader (Molecular Devices). The relative protein was determined by adding 200 μL 1:5 dilution Bio Rad G250 protein dye:water to the 10 μL cell lysate sample taken previously, and the OD595 was measured on a 96 well plate reader (Molecular Devices). Data points were normalized both to the relative protein content and non-receptor dependent forskolin stimulation.
(§4) For data analysis, EC50 and pA2 values represent the mean of duplicate experiments performed in triplet, quadruplet or more independent experiments.

[2] = molecular target: mMC4R (Mus musculus, UniProt P56450); test: Functional bioassay, CRE/β-galactosidase reporter in HEK-293 cells stably expressing mMC4R; conditions: for pharmacology in words at mMC4R: slight agonist = some stimulatory response at 100 μM, not enough to determine an EC50
Description: as §1, §2, §3, §4

[3] = molecular target: mMC1R (Mus musculus, UniProt Q01727); test: Functional bioassay, CRE/β-galactosidase reporter in HEK-293 cells stably expressing mMC1R
Description: as §1, §2, §3, §4

[4] = molecular target: mMC5R (Mus musculus, UniProt P41149); test: Functional bioassay, CRE/β-galactosidase reporter in HEK-293 cells stably expressing mMC5R; conditions: for pharmacology in words at mMC5R: slight agonist = some stimulatory response at 100 μM, not enough to determine an EC50
mMC5R, sequence (P41149 whole entry): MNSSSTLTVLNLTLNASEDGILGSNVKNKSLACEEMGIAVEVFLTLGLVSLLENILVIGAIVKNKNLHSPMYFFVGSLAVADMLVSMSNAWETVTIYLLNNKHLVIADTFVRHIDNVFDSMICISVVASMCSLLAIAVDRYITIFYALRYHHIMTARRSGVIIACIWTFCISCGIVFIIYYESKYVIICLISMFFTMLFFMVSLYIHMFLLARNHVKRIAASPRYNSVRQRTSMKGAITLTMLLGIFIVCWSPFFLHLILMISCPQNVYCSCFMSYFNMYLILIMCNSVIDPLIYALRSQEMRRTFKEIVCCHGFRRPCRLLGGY
Description: as §1, §2, §3, §4

mMC4R, sequence (P56450 whole entry): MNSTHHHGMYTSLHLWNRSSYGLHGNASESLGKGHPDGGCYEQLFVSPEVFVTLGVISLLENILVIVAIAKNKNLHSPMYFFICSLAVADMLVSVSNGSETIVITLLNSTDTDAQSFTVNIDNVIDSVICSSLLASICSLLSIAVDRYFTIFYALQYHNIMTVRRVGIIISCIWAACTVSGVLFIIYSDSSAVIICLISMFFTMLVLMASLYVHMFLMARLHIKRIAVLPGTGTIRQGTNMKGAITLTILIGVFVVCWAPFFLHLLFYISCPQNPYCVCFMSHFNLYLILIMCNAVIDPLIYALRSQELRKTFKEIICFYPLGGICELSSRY
mMC3R, sequence (P33033 whole entry): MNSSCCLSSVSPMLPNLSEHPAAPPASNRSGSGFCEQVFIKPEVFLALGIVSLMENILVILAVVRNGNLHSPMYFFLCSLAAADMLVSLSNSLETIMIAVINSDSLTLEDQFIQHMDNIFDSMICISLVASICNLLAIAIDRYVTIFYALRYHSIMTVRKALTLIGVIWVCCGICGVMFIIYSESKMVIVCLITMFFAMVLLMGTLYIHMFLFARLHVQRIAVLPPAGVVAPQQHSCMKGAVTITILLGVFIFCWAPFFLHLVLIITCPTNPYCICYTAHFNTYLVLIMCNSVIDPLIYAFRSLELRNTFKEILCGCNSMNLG
mMC1R, sequence (Q01727 whole entry): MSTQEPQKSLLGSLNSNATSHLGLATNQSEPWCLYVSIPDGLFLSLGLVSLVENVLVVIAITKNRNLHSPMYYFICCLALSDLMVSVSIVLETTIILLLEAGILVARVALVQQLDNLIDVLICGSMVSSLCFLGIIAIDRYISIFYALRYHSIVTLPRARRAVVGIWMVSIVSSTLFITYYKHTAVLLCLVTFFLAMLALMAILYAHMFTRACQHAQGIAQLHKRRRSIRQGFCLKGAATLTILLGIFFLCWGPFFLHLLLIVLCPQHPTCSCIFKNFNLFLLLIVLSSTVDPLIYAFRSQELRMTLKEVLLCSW

EC50 [1]: > 100000 nM | pharmacology in words at mMC3R [1]: Slight Agonist | Kb [2]: 794 nM | pharmacology in words at mMC4R [2]: Partial agonist
SMILES: C[C@@H]1NC(=O)[C@H](CC(N)=O)NC(=O)[C@@H](Cc2ccccc2)NC(=O)[C@H](Cc2ccccc2)NC(=O)[C@H](CCCNC(=N)N)NC(=O)[C@@H](NC(=O)[C@@H](N)Cc2ccc(O)cc2)CSSC[C@@H](C(=O)N[C@@H](Cc2ccc(O)cc2)C(N)=O)NC(=O)[C@H](Cc2ccccc2)NC1=O [SEQ ID NO: 1, Tyr-c[Cys-Arg-Phe-DPhe-Asn-Ala-Phe-Cys]-Tyr] (H-YCRF[dF]NAFCY-NH2; disulfide 2-9)

EC50 [1]: > 100000 nM | pharmacology in words at mMC4R [2]: Partial agonist | EC50 [4]: > 100000 nM
SMILES: C[C@@H]1NC(=O)[C@H](CC(N)=O)NC(=O)[C@H](Cc2ccccc2)NC(=O)[C@H](CCCNC(=N)N)NC(=O)[C@H](Cc2c[nH]c3ccccc23)NC(=O)[C@@H](NC(=O)[C@@H](N)Cc2ccc(O)cc2)CC(=O)NC[C@@H](C(=O)N[C@@H](Cc2ccc(O)cc2)C(N)=O)NC(=O)[C@H](Cc2ccccc2)NC1=O [SEQ ID NO: 4, Tyr-c[Asp-Trp-Arg-Phe-Asn-AIa-Phe-Dpr]-Tyr] (H-YDWRFNAF[Dap]Y-NH2; lactam 2-9)

pharmacology in words at mMC3R [1]: Slight Agonist
SMILES: C[C@@H]1NC(=O)[C@H](CC(N)=O)NC(=O)[C@@H](Cc2ccccc2)NC(=O)[C@H](CCCNC(=N)N)NC(=O)[C@H](Cc2c[nH]c3ccccc23)NC(=O)[C@@H](NC(=O)[C@@H](N)Cc2ccc(O)cc2)CC(=O)NC[C@@H](C(=O)N[C@@H](Cc2ccc(O)cc2)C(N)=O)NC(=O)[C@H](Cc2ccccc2)NC1=O [SEQ ID NO: 5, Tyr-c[Asp-Trp-Arg-DPhe-Asn-Ala-Phe-Dpr]-Tyr] (H-YDWR[dF]NAF[Dap]Y-NH2; lactam 2-9)

pharmacology in words at mMC3R [1]: Slight agonist
SMILES: C[C@@H]1NC(=O)[C@H](CC(N)=O)NC(=O)[C@H](Cc2c[nH]c3ccccc23)NC(=O)[C@H](CCCNC(=N)N)NC(=O)[C@H](Cc2ccccc2)NC(=O)[C@@H](NC(=O)[C@@H](N)Cc2ccc(O)cc2)CC(=O)NC[C@@H](C(=O)N[C@@H](Cc2ccc(O)cc2)C(N)=O)NC(=O)[C@H](Cc2ccccc2)NC1=O [SEQ ID NO: 6, Tyr-c[Asp-Phe-Arg-Trp-Asn-Ala-Phe-Dpr]-Tyr] (H-YDFRWNAF[Dap]Y-NH2; lactam 2-9)

Kb [1]: 631 nM | Kb [2]: 631 nM | EC50 [4]: > 100000 nM
SMILES: CCCC[C@H](NC(=O)[C@H](CO)NC(=O)[C@H](Cc1ccc(O)cc1)NC(=O)[C@H](CO)NC(C)=O)C(=O)N[C@@H](Cc1ccc(O)cc1)C(=O)N[C@H]1CC(=O)NC[C@@H](C(=O)N[C@@H](Cc2ccc(O)cc2)C(=O)N[C@@H](CCCCN)C(=O)N2CCC[C@H]2C(=O)N[C@H](C(N)=O)C(C)C)NC(=O)[C@H](Cc2ccccc2)NC(=O)[C@H](C)NC(=O)[C@H](CC(N)=O)NC(=O)[C@H](Cc2ccccc2)NC(=O)[C@H](Cc2ccccc2)NC(=O)[C@H](CCCNC(=N)N)NC1=O [SEQ ID NO: 11, Ac-Ser-Tyr-Ser-Nle-Tyr-c[Asp-Arg-Phe-Phe-Asn-Ala-Phe-Dpr]-Tyr-Lys-Pro-Val] (Ac-SYS[Nle]YDRFFNAF[Dap]YKPV-NH2; lactam 6-13)

pharmacology in words at mMC1R ([3]; slight agonist = some stimulatory response at 100 μM, not enough to determine an EC50): Partial agonist | EC50 [1]: > 100000 nM | EC50 [2]: > 100000 nM | EC50 [4]: > 100000 nM
SMILES: CCCC[C@H](NC(=O)[C@H](CO)NC(=O)[C@H](Cc1ccc(O)cc1)NC(=O)[C@H](CO)NC(C)=O)C(=O)N[C@@H](CCC(=O)O)C(=O)N[C@@H](Cc1ccccc1)C(=O)N[C@@H](Cc1ccccc1)C(=O)N[C@@H](CCCNC(=N)N)C(=O)NCC(=O)N[C@@H](CCCCN)C(=O)N1CCC[C@H]1C(=O)N[C@H](C(N)=O)C(C)C [SEQ ID NO: 13] (Ac-SYS[Nle]EFFRGKPV-NH2)

EC50 [1]: > 100000 nM | EC50 [2]: > 100000 nM | pharmacology in words at mMC5R [4]: Slight agonist
SMILES: CCCC[C@H](NC(=O)[C@H](CO)NC(=O)[C@H](Cc1ccc(O)cc1)NC(=O)[C@H](CO)NC(C)=O)C(=O)N[C@@H](CCC(=O)O)C(=O)N[C@@H](Cc1c[nH]cn1)C(=O)N[C@@H](CCCNC(=N)N)C(=O)N[C@@H](Cc1ccccc1)C(=O)N[C@H](Cc1ccccc1)C(=O)NCC(=O)N[C@@H](CCCCN)C(=O)N1CCC[C@H]1C(=O)N[C@H](C(N)=O)C(C)C [SEQ ID NO: 18, Ac-Ser-Tyr-Ser-Nle-Glu-His-Arg-Phe-DPhe-Gly-Lys-Pro-Val] (Ac-SYS[Nle]EHRF[dF]GKPV-NH2)

Kb [1]: 63.1 nM | pharmacology in words at mMC3R [1]: Partial agonist
SMILES: C[C@@H]1NC(=O)[C@H](CC(N)=O)NC(=O)[C@H](Cc2c[nH]c3ccccc23)NC(=O)[C@H](CCCNC(=N)N)NC(=O)[C@@H](Cc2ccccc2)NC(=O)[C@@H]2CCCN2C(=O)[C@@H](NC(=O)[C@@H](N)Cc2ccc(O)cc2)CC(=O)NC[C@@H](C(=O)N[C@@H](Cc2ccc(O)cc2)C(N)=O)NC(=O)[C@H](Cc2ccccc2)NC1=O [SEQ ID NO: 28, Tyr-c[Asp-Pro-DPhe-Arg-Trp-Asn-Ala-Phe-Dpr]-Tyr] (H-YDP[dF]RWNAF[Dap]Y-NH2; lactam 2-10)

Kb [1]: 63.1 nM | pharmacology in words at mMC3R [1]: Partial agonist
SMILES: C[C@@H]1NC(=O)[C@H](CC(N)=O)NC(=O)[C@H](Cc2c[nH]c3ccccc23)NC(=O)[C@H](CCCNC(=N)N)NC(=O)[C@@H](Cc2ccccc2)NC(=O)[C@H](Cc2ccccc2)NC(=O)[C@@H](NC(=O)[C@@H](N)Cc2ccc(O)cc2)CC(=O)NC[C@@H](C(=O)N[C@@H](Cc2ccc(O)cc2)C(N)=O)NC(=O)[C@H](Cc2ccccc2)NC1=O [SEQ ID NO: 29, Tyr-c[Asp-Phe-DPhe-Arg-Trp-Asn-Ala-Phe-Dpr]-Tyr] (H-YDF[dF]RWNAF[Dap]Y-NH2; lactam 2-10)

Kb [1]: 5.01 nM | Kb [2]: 0.501 nM | pharmacology in words at mMC4R [2]: Partial agonist
SMILES: C[C@@H]1NC(=O)[C@H](CC(N)=O)NC(=O)[C@H](Cc2c[nH]c3ccccc23)NC(=O)[C@H](CCCNC(=N)N)NC(=O)[C@@H](Cc2ccc3ccccc3c2)NC(=O)[C@H](Cc2c[nH]cn2)NC(=O)[C@@H](NC(=O)[C@@H](N)Cc2ccc(O)cc2)CC(=O)NC[C@@H](C(=O)N[C@@H](Cc2ccc(O)cc2)C(N)=O)NC(=O)[C@H](Cc2ccccc2)NC1=O [SEQ ID NO: 33, Tyr-c[Asp-His-DNal(2′)-Arg-Trp-Asn-Ala-Phe-Dpr]-Tyr]

More lines, now with the values behind:

SMILES: C[C@@H]1NC(=O)[C@H](C)NC(=O)[C@@H](NC(=O)[C@@H](N)Cc2ccc(O)cc2)CC(=O)NC[C@@H](C(=O)N[C@@H](Cc2ccc(O)cc2)C(N)=O)NC(=O)[C@H](Cc2ccccc2)NC(=O)[C@H](C)NC(=O)[C@H](CC(N)=O)NC(=O)[C@H](C)NC1=O [SEQ ID NO: 2, Tyr-c[Asp-Ala-Ala-Ala-Asn-Ala-Phe-Dpr]-Tyr] (H-YDAAANAF[Dap]Y-NH2; lactam 2-9)
EC50 [3]: > 100000 nM | EC50 [1]: > 100000 nM | EC50 [2]: > 100000 nM | EC50 [4]: > 100000 nM

SMILES: C[C@@H]1NC(=O)[C@H](CC(N)=O)NC(=O)[C@H](Cc2ccccc2)NC(=O)[C@H](Cc2ccccc2)NC(=O)[C@H](CCCNC(=N)N)NC(=O)[C@@H](NC(=O)[C@@H](N)Cc2ccc(O)cc2)CC(=O)NC[C@@H](C(=O)N[C@@H](Cc2ccc(O)cc2)C(N)=O)NC(=O)[C@H](Cc2ccccc2)NC1=O [SEQ ID NO: 3, Tyr-c[Asp-Arg-Phe-Phe-Asn-Ala-Phe-Dpr]-Tyr]
Kb [1]: 2000 nM | Kb [2]: 1260 nM | decrease in antagonist potency at mMC4R ([2]; compared with hAGRP(109-118)): 8 fold | EC50 [4]: > 100000 nM

SMILES: CCCC[C@H](NC(C)=O)C(=O)N[C@H]1CC(=O)NCCCC[C@@H](C(N)=O)NC(=O)[C@@H](Cc2ccccc2)NC(=O)[C@H](Cc2ccccc2)NC(=O)[C@H](CCCNC(=N)N)NC(=O)[C@H](Cc2c[nH]cn2)NC1=O [SEQ ID NO: 23, Ac-Nle-c[Asp-His-Arg-Phe-DPhe-Lys]] (Ac-[Nle]DHRF[dF]K-NH2; lactam 2-7)
pharmacology in words at mMC3R [1]: Slight agonist | EC50 [2]: > 100000 nM | pharmacology in words at mMC5R [4]: Slight agonist

SMILES: C[C@@H]1NC(=O)[C@H](CC(N)=O)NC(=O)[C@H](Cc2c[nH]c3ccccc23)NC(=O)[C@H](CCCNC(=N)N)NC(=O)[C@H](C)NC(=O)[C@H](Cc2c[nH]cn2)NC(=O)[C@@H](NC(=O)[C@@H](N)Cc2ccc(O)cc2)CC(=O)NC[C@@H](C(=O)N[C@@H](Cc2ccc(O)cc2)C(N)=O)NC(=O)[C@H](Cc2ccccc2)NC1=O [SEQ ID NO: 25]
pharmacology in words at mMC3R [1]: Partial agonist

SMILES: C[C@@H]1NC(=O)[C@H](CC(N)=O)NC(=O)[C@H](Cc2c[nH]c3ccccc23)NC(=O)[C@H](CCCNC(=N)N)NC(=O)[C@@H](Cc2ccc(I)cc2)NC(=O)[C@H](Cc2c[nH]cn2)NC(=O)[C@@H](NC(=O)[C@@H](N)Cc2ccc(O)cc2)CC(=O)NC[C@@H](C(=O)N[C@@H](Cc2ccc(O)cc2)C(N)=O)NC(=O)[C@H](Cc2ccccc2)NC1=O [SEQ ID NO: 32, Tyr-c[Asp-His-(pI)DPhe-Arg-Trp-Asn-Ala-Phe-Dpr]-Tyr]
Kb [1]: 1.26 nM | Kb [2]: 0.398 nM | pharmacology in words at mMC4R [2]: Partial agonist

SMILES: C[C@@H]1NC(=O)[C@H](CC(N)=O)NC(=O)[C@H](Cc2c[nH]c3ccccc23)NC(=O)[C@H](CCCNC(=N)N)NC(=O)[C@@H](Cc2cccc3ccccc23)NC(=O)[C@H](Cc2c[nH]cn2)NC(=O)[C@@H](NC(=O)[C@@H](N)Cc2ccc(O)cc2)CC(=O)NC[C@@H](C(=O)N[C@@H](Cc2ccc(O)cc2)C(N)=O)NC(=O)[C@H](Cc2ccccc2)NC1=O [SEQ ID NO: 34, Tyr-c[Asp-His-DNal(1′)-Arg-Trp-Asn-Ala-Phe-Dpr]-Tyr]
EC50 [2]: 0.57 ± 0.08 nM

SMILES: C[C@@H]1NC(=O)[C@H](CC(N)=O)NC(=O)[C@H](Cc2c[nH]c3ccccc23)NC(=O)[C@H](CCCNC(=N)N)NC(=O)[C@@H](Cc2ccc(-c3ccccc3)cc2)NC(=O)[C@H](Cc2c[nH]cn2)NC(=O)[C@@H](NC(=O)[C@@H](N)Cc2ccc(O)cc2)CC(=O)NC[C@@H](C(=O)N[C@@H](Cc2ccc(O)cc2)C(N)=O)NC(=O)[C@H](Cc2ccccc2)NC1=O [SEQ ID NO: 35, Tyr-c[Asp-His-DBip-Arg-Trp-Asn-Ala-Phe-Dpr]-Tyr]
EC50 [2]: 0.57 ± 0.07 nM
